Data taken from the Deep4Chem optical property database.
Several values for one entry are separate records, joined by “and”; a condition that tells them apart may be missing. Equal entries are not always repeated. Blank lines part the entries; values can stand above or below the molecule they belong to.

Assay: photoluminescence quantum yield (fraction); solvent given as SMILES
[1] = in O=P(c1ccccc1)(c1ccccc1)c1ccccc1Oc1ccccc1P(=O)(c1ccccc1)c1ccccc1

SMILES: O=C([O-])c1ccccc1-c1c2cc(Br)c(=O)c(Br)c-2oc2c(Br)c([O-])c(Br)cc12
photoluminescence quantum yield (in CC(C)O): 0.76 | photoluminescence quantum yield (in CCO): 0.69 | photoluminescence quantum yield (in CO): 0.6 | photoluminescence quantum yield (in O): 0.2

SMILES: c1cc(N2CCCC2)ccn1
photoluminescence quantum yield (in CC1CCCCC1): 0.09 | photoluminescence quantum yield (in ClC(Cl)Cl): 0.03

SMILES: O=C1c2cc(F)ccc2-c2cnccc21
photoluminescence quantum yield (in CC#N): 0.015 | photoluminescence quantum yield (in CCCCCC): 0.0017 | photoluminescence quantum yield (in CCOC(C)=O): 0.02 | photoluminescence quantum yield (in Cc1ccccc1): 0.012 | photoluminescence quantum yield (in ClCCl): 0.018

SMILES: CCN(CC)c1ccc2cc(/C=C/C3=C4CC/C(=C\c5cc6ccc(N(CC)CC)cc6oc5=O)C4=[O+][B-](F)(F)O3)c(=O)oc2c1
photoluminescence quantum yield (in C1COCCO1): 0.3 | photoluminescence quantum yield (in CC(C)=O): 0.18 | photoluminescence quantum yield (in CCOC(C)=O): 0.2 | photoluminescence quantum yield (in CS(C)=O): 0.0068 | photoluminescence quantum yield (in Cc1ccccc1): 0.4 | photoluminescence quantum yield (in ClC(Cl)Cl): 0.22

SMILES: CC(C)(C)c1ccc2c(c1)c1ncncc1c1c3ccccc3sc21
photoluminescence quantum yield (in ClCCl): 0.1

SMILES: CSC1=C2C=C(c3cc4n(c3)[B-](F)(F)[N+]3=CC=CC3=C4c3c(C)cc(C)cc3C)C(C)=[N+]2[B-](F)(F)n2c(C)ccc21
photoluminescence quantum yield (in C1CCCCC1): 0.83 | photoluminescence quantum yield (in CC#N): 0.01 | photoluminescence quantum yield (in CC(C)=O): 0.01 | photoluminescence quantum yield (in CCOC(C)=O): 0.19 | photoluminescence quantum yield (in Cc1ccccc1): 0.57

SMILES: COC(=O)c1cc(=O)n(C)c2cc(-c3ccc4c(c3)OCCO4)sc12
photoluminescence quantum yield (in CC#N): 0.68 | photoluminescence quantum yield (in ClCCl): 0.83

SMILES: CCCC1=Cc2nc1ccc1[nH]c(cc1CCC)c1nc(ccc3[nH]c2cc3CCC)C(CCC)=C1
photoluminescence quantum yield (in Cc1ccccc1): 0.38

SMILES: c1ccc2c(c1)Oc1ccccc1N2c1ccc(-c2nnc(-c3ccc(N4c5ccccc5Oc5ccccc54)cc3)o2)cc1
photoluminescence quantum yield (in Cc1ccccc1): 0.431 | photoluminescence quantum yield [1]: 0.87

SMILES: CCCCCCCCCCCCn1cccc1/C=C/c1ccc(/C=C/c2cccn2CCCCCCCCCCCC)cc1
photoluminescence quantum yield (in Cc1ccccc1): 0.32

SMILES: CC1=[N+]2C(=C(c3c4ccccc4cc4ccccc34)c3ccc(C)n3[B-]2(F)F)C=C1
photoluminescence quantum yield (in C1CCOC1): 0.002 | photoluminescence quantum yield (in CC#N): 0.002 | photoluminescence quantum yield (in CCO): 0.005 | photoluminescence quantum yield (in CN(C)C=O): 0.003 | photoluminescence quantum yield (in CO): 0.001 | photoluminescence quantum yield (in CS(C)=O): 0.002 | photoluminescence quantum yield (in Cc1ccccc1): 0.29 | photoluminescence quantum yield (in ClC(Cl)Cl): 0.01 and 0.004

SMILES: O=C(c1ccc(C(=O)c2ccc(N3c4ccccc4Oc4ccccc43)cc2)cc1)c1ccc(N2c3ccccc3Oc3ccccc32)cc1
photoluminescence quantum yield (in Cc1ccccc1): 0.1 | photoluminescence quantum yield (in c1cc(-c2cccc(-n3c4ccccc4c4ccccc43)c2)cc(-n2c3ccccc3c3ccccc32)c1): 0.36

SMILES: CC(=O)c1nc(-c2ccc(N(c3ccccc3)c3ccccc3)cc2)oc1C
photoluminescence quantum yield (in CC#N): 0.486 | photoluminescence quantum yield (in CCO): 0.264 | photoluminescence quantum yield (in CCOC(C)=O): 0.659 | photoluminescence quantum yield (in CCOCC): 0.886 | photoluminescence quantum yield (in ClCCl): 0.972

SMILES: Cc1cc(C)n2c1C=C1c3ccccc3C(c3cccn3C)=[N+]1[B-]2(F)F
photoluminescence quantum yield (in C1CCOC1): 0.96 | photoluminescence quantum yield (in CC#N): 0.97 | photoluminescence quantum yield (in CCCCCC): 0.96 | photoluminescence quantum yield (in CO): 0.98 | photoluminescence quantum yield (in Cc1ccccc1): 0.94 | photoluminescence quantum yield (in ClCCl): 0.99

SMILES: CC1(C)c2ccccc2N(c2ccc(-c3nnc(-c4ccc(-n5c6ccccc6c6ccccc65)cc4)o3)cc2)c2ccccc21
photoluminescence quantum yield [1]: 0.67

SMILES: CN(C)c1nc(N)c2nc(C#N)n(Cc3ccccc3)c2n1
photoluminescence quantum yield (in C1COCCO1): 0.92 | photoluminescence quantum yield (in CC#N): 0.55 | photoluminescence quantum yield (in CO): 0.8 | photoluminescence quantum yield (in ClCCl): 0.95

SMILES: CCCCCCCCCCOc1ccc2cc(C3=C4C(=O)N(CC(OCC)OCC)C(c5cc6ccc(OCCCCCCCCCC)cc6o5)=C4C(=O)N3CC(OCC)OCC)oc2c1
photoluminescence quantum yield (in ClC(Cl)Cl): 0.75

SMILES: COc1ccc(N(c2ccccc2)c2ccccc2)cc1
photoluminescence quantum yield (in Cc1ccccc1): 0.03

SMILES: Cc1ccc(C)c(C)c1
photoluminescence quantum yield (in C1CCCCC1): 0.41

SMILES: O=[N+]([O-])c1ccc(NCCNCc2c3ccccc3cc3ccccc23)c([N+](=O)[O-])c1
photoluminescence quantum yield (in C1CCCCC1): 0.0003 | photoluminescence quantum yield (in C1CCOC1): 0.00044 | photoluminescence quantum yield (in CC#N): 0.00168 | photoluminescence quantum yield (in CC(C)=O): 0.0024 | photoluminescence quantum yield (in CCO): 0.0363 | photoluminescence quantum yield (in CN(C)C=O): 0.00369 | photoluminescence quantum yield (in CO): 0.0334 | photoluminescence quantum yield (in ClC(Cl)Cl): 0.0061

SMILES: CCc1c(C)[nH]c(C2=[N+]3C(=C(C)c4c(C)c(CC)c(C)n4[B-]3(F)F)c3ccccc32)c1C
photoluminescence quantum yield (in C1CCOC1): 0.27 | photoluminescence quantum yield (in CC#N): 0.21 | photoluminescence quantum yield (in CCCCCC): 0.93 | photoluminescence quantum yield (in CO): 0.21 | photoluminescence quantum yield (in Cc1ccccc1): 0.71 | photoluminescence quantum yield (in ClCCl): 0.72

SMILES: O=c1c2ccccc2oc2cc(N3c4ccccc4C4(c5ccccc5Oc5ccccc54)c4ccccc43)ccc12
photoluminescence quantum yield (in Cc1ccccc1): 0.77

SMILES: c1ccc(-c2nc3sc4ccccc4c3s2)nc1
photoluminescence quantum yield (in CS(C)=O): 0.82

SMILES: Nc1cc([NH3+])cc(-c2nc3ccccc3s2)c1
photoluminescence quantum yield (in O): 0.064

SMILES: COC(=O)/C=C/C1=CC2=C(c3c(C)cc(C)cc3C)c3cc(/C=C/C(=O)OC)cn3[B-](F)(F)[N+]2=C1
photoluminescence quantum yield (in ClCCl): 0.36

The next lines start with the values.

photoluminescence quantum yield (in ClCCl): 0.12
SMILES: O=C(Nc1ccccc1[N+](=O)[O-])c1ccc2oc(-c3cc4ccccc4oc3=O)nc2c1

photoluminescence quantum yield (in CC#N): 0.4 | photoluminescence quantum yield (in CCO): 0.66 | photoluminescence quantum yield (in CN(C)C=O): 0.42 | photoluminescence quantum yield (in CO): 0.7 | photoluminescence quantum yield (in O): 0.36 and 0.31
SMILES: CCN(CC)c1ccc2c(-c3ccccc3C(=O)[O-])c3ccc(=[N+](CC)CC)cc-3oc2c1

photoluminescence quantum yield (in ClCCl): 0.11
SMILES: F[B-]1(F)Oc2ccccc2-c2c3c(c4c([n+]21)CCc1ccccc1-4)CCc1ccccc1-3

photoluminescence quantum yield (in C1CCOC1): 0.49
SMILES: F[B-]1(F)Oc2ccccc2-c2n(-c3ccc(C(F)(F)F)cc3)c(-c3ccccc3)c(-c3ccccc3)[n+]21

photoluminescence quantum yield (in C1CCOC1): 0.51 | photoluminescence quantum yield (in CO): 0.44
SMILES: CCOC(=O)C1=CN(c2ccccc2)C=C(C(=O)OCC)C1c1ccccc1

photoluminescence quantum yield (in ClC(Cl)Cl): 0.18
SMILES: Cc1ccc(C2=C3C=CC4=[N+]3[P-](=O)(=O)n3c2ccc3-c2ccc([nH]2)/C(c2ccc(C)cc2)=c2/cc/c(o2)=C(\c2ccc(C)cc2)c2ccc4[nH]2)cc1

photoluminescence quantum yield (in CC1CCCCC1): 0.5 | photoluminescence quantum yield (in CC#N): 0.37 | photoluminescence quantum yield (in CO): 0.13
SMILES: COC(=O)C(NC(=O)OC(C)(C)C)c1ccc2oc(-c3cccc(Oc4ccccc4)c3)nc2c1 (stereo unspecified)

photoluminescence quantum yield (in CO): 0.03
SMILES: N[C@@H](Cn1nnc2cc(-c3ccc(-c4ccsc4)cc3)ccc21)C(=O)O

photoluminescence quantum yield (in CC#N): 0.06 | photoluminescence quantum yield (in CCO): 0.05 | photoluminescence quantum yield (in ClCCl): 0.4 | photoluminescence quantum yield (in O): 0.009
SMILES: C=CCNc1ccc2c(ccc3oc4cc(=[N+](C)C)ccc-4nc32)c1

photoluminescence quantum yield (in CCCCCC): 0.02 | photoluminescence quantum yield (in ClCCl): 0.02
SMILES: CC(C)[Si](C#Cc1ccc(C#C[Si](C(C)C)(C(C)C)C(C)C)c2nc3cc4c(cc3nc12)[C@H]1c2ccccc2[C@@H]4c2ccccc21)(C(C)C)C(C)C

photoluminescence quantum yield (in C1CCCCC1): 0.95
SMILES: c1cc2c3c(c1)OCCCCCCCCOc1cccc(c1-c1c4ccccc4c-3c3ccccc13)OCCCCCCCCO2

photoluminescence quantum yield (in ClCCl): 0.202
SMILES: CC[B-]1(CC)c2cccc3cc4ccccc4c(c23)-c2cccc(C)[n+]21

photoluminescence quantum yield (in C1CCOC1): 0.96
SMILES: c1ccc(-c2cnc3nn4ccccc4c3n2)cc1

photoluminescence quantum yield (in CC#N): 0.996
SMILES: COc1ccc(-n2nc(C#N)c(N3CCCC3)n2)cc1OC

photoluminescence quantum yield (in CO): 0.75
SMILES: Cc1cc(C)c(B(c2cc(-c3ccccc3)sc2-c2sc(-c3ccccc3)cc2P(=O)(c2ccccc2)c2ccccc2)c2c(C)cc(C)cc2C)c(C)c1

photoluminescence quantum yield (in ClCCl): 0.13
SMILES: c1ccc(N(c2ccccc2)c2ccc(N(c3ccccc3)c3ccc4ccc5c(N(c6ccccc6)c6ccc(N(c7ccccc7)c7ccccc7)cc6)ccc6ccc3c4c65)cc2)cc1

photoluminescence quantum yield (in CC#N): 0.02
SMILES: O=C(O)c1ccccc1-c1nc(-c2ccccc2)c2ccccn12

photoluminescence quantum yield (in CS(C)=O): 0.57
SMILES: COc1ccc(-c2cc(/C=C/c3ccc(N(c4ccccc4)c4ccccc4)cc3)c(C#N)c(N3CCCCC3)c2)cc1

photoluminescence quantum yield (in C1CCCCC1): 0.36
SMILES: CCCC1(CCC)c2ccccc2-c2ccccc21

photoluminescence quantum yield (in ClCCl): 0.47
SMILES: CCCCCCc1cc2c3c(c1)c(=C1c4ccccc4S(=O)(=O)c4ccccc41)c1cc(CCCCCC)cc4c1N3c1c(cc(CCCCCC)cc1c4=C1c3ccccc3S(=O)(=O)c3ccccc31)c2=C1c2ccccc2S(=O)(=O)c2ccccc21

photoluminescence quantum yield (in C1CCCCC1): 0.024
SMILES: c1cc2ccc3ccc4ccc5ccc1c1c2c3c4c51

photoluminescence quantum yield (in CCO): 0.12 | photoluminescence quantum yield (in CO): 0.06 | photoluminescence quantum yield (in CS(C)=O): 0.24
SMILES: CN1/C(=C/C=C(/C=C/c2sc3ccccc3[n+]2C)c2cccc(C(F)(F)F)c2)Sc2ccccc21

photoluminescence quantum yield (in ClCCl): 0.55
SMILES: C(#Cc1nc(C#Cc2ccccc2)c(C#Cc2ccccc2)c(C#Cc2ccccc2)c1C#Cc1ccccc1)c1ccccc1

photoluminescence quantum yield (in C1CCOC1): 0.48 | photoluminescence quantum yield (in CCCCCC): 0.48 | photoluminescence quantum yield (in CO): 0.1 | photoluminescence quantum yield (in CS(C)=O): 0.03 | photoluminescence quantum yield (in ClC(Cl)Cl): 0.4 | photoluminescence quantum yield (in ClCCl): 0.45
SMILES: CC1=[N+]2C(=c3c4c5ccccc5cc5cccc(c6cc(C)n(c36)[B-]2(F)F)c54)C=C1

photoluminescence quantum yield (in C1CCCCC1): 0.11 | photoluminescence quantum yield (in CC#N): 0.01 | photoluminescence quantum yield (in CO): 0.03 | photoluminescence quantum yield (in ClC(Cl)Cl): 0.02
SMILES: CC1(C)CC(/N=C/c2ccc3ccc4cccc5ccc2c3c45)CC(C)(C)N1[O]

photoluminescence quantum yield (in ClCCl): 0.78
SMILES: N#Cc1ccc(-n2c(-c3ccc(-c4ccc(-n5c6ccccc6c6ccccc65)cc4)s3)nc3c4ccccc4c4ccccc4c32)c2ccccc12

photoluminescence quantum yield (in ClCCl): 0.27
SMILES: CC(C)(C)NC(=O)c1ccc(-c2cc3ccccc3s2)c2ccc3c4ccccc4c4ccccc4c3c12

photoluminescence quantum yield (in ClC(Cl)Cl): 0.65
SMILES: CCCCCCN1C(=O)c2cccc3c(-c4ccc(OC)s4)ccc(c23)C1=O

photoluminescence quantum yield (in C1CCOC1): 0.486
SMILES: CCCCCOc1cc2oc(=O)c3c4ccc(N)cc4c4ccc5cccc6c(c1)c2c3c4c56

photoluminescence quantum yield (in ClCCl): 0.05
SMILES: CC(C)(C)NC(=O)c1cccc2ccc3c4ccc(F)cc4c4cc(F)ccc4c3c12

photoluminescence quantum yield (in CCCCCC): 0.21 | photoluminescence quantum yield (in CO): 0.24 | photoluminescence quantum yield (in ClCCl): 0.41
SMILES: CC(C)c1ccc2ccc3cccc4ccc1c2c34

photoluminescence quantum yield (in C1CCOC1): 0.27
SMILES: c1cc2ccc1-c1ccc(cc1)-c1ccc(s1)-c1ccc(cc1)-c1ccc(cc1)-c1ccc(s1)-c1ccc(cc1)-c1ccc(cc1)-c1ccc-2s1
